This test has as its target human 5-HT5A receptor (Homo sapiens (Human), UniProt P47898). The experiment in a line: Test on a human 5-HT5A receptor binding inhibition ([3H]5-CT). The following applies: membrane from HEK293 cells expressing human 5-HT5A receptor, Ki calculated from IC50. On the procedure: The ORF (open reading frame; protein coding region) of a human 5-HT5A receptor (Genbank AF498985) was cloned from a human hippocampus cDNA library, and then inserted into a pCR2.1 vector (Invitrogen), and Escherichia coli containing the plasmid was cultured in a large amount. Next, the full-length cDNA sequence of the human 5-HT5A receptor was analyzed, and recombined into a pCDNA3.1 vector (Invitrogen) as an expression vector and cultured in a large amount. HEK293 established cells (ATCC) derived from the human fetal kidney were seeded, the expression plasmid (1 μg) obtained above were added thereto with LIPOFECTAMINE 2000 (Invitrogen; 2 μl), the gene was transfected into HEK293 cells, and the expression cells were screened with a drug-resistant marker, Geneticin (G418 sulfate 500 μg/ml; Kanto Chemical Co., Inc.). Thus prepared recombinant cells which expressed the gene were cultured in a medium containing D-MEM (Dulbecco's modified eagle medium, Sigma), 10% FCS (Fetal calf serum: fetal bovine serum), 1% Pc./Sm (Penicillin/Streptomycin, Invitrogen), and 500 μg/ml G418 for 3 days. These experimental operations followed a manual for gene operation experiment and an instruction appended in a reagent, and the like, such as a known method (Sambrook, J. et al, Molecular Cloning-A Laboratory Manual”, Cold Spring Harabor laboratory, NY, 1989).
HEK293 cells for forced expressions of a human 5-HT5A receptor were cultured in a F500 plate, and scraped with a scraper. After centrifugation, the precipitate was collected, and an incubation buffer (50 mM Tris (HCl) (pH 7.4), 10 mM MgSO4, and 0.5 mM EDTA (ethylenediamine tetraacetic acid)) was added thereto. After homogenization, it was further centrifuged, and the incubation buffer was added to the precipitate, followed by thoroughly suspending. The operation was repeated, and protein concentration was measured, thereby completing preparation of the membrane.
A solution of the compound to be tested and 100 μM 5-CT (5-carboxamidetriptamine) in DMSO was added to a 96-well plate at 2 μl/well, suspended in an incubation buffer, and a membrane from HEK293 cells for forced expressions of a human 5-HT5A receptor prepared at 200 μg/ml was added at 100 μl/well. After incubation at room temperature for 15 minutes, a [^3H]5-CT solution (2 nM [^3H]5-CT, incubation buffer) was added thereto at 100 μl/well.
Separately, 100 μl of the solution was distributed into a liquid scintillation vial, and 2 ml of Aquasol II (registered trademark) was added thereto, followed by stirring. Then, radioactivity was measured by a liquid scintillation counter. It was incubated at 37° C. for 60 minutes. The reaction mixture was sucked into 96-well GF/C filter plate that had been pre-treated with 0.2% polyethyleneimine, and washed six times with an ice-cooled, 50 mM Tris (pH 7.5) buffer. The GF/C filter plate was dried.
Microscint TMPS (registered trademark) was added thereto at 40 μl/well. Radioactivity remaining on the GF/C filter plate was measured by a top counter.
The [^3H]5-CT binding inhibiting activity by the compound to be tested in each experiment was determined as an IC50 value with a radioactivity upon addition of DMSO alone being 0% inhibition, and a radioactivity upon addition of 1 μM 5-CT being 100% inhibition. Separately, Ki values were calculated from the Kd value of the [^3H]5-CT determined from Scatchard analysis, by the following equation. Ki=IC50(1+Concentraion of ligand added/Kd(4.95 nM))

Among the data in patent US8853242B2, “Nitrogenous-ring acylguanidine derivative” (Astellas Pharma Inc., priority 2009, dated 2014) are Ki values, retold here.

Counter-ions that a name gives are not always drawn.

Chain of human 5-HT5A receptor (P47898 whole entry): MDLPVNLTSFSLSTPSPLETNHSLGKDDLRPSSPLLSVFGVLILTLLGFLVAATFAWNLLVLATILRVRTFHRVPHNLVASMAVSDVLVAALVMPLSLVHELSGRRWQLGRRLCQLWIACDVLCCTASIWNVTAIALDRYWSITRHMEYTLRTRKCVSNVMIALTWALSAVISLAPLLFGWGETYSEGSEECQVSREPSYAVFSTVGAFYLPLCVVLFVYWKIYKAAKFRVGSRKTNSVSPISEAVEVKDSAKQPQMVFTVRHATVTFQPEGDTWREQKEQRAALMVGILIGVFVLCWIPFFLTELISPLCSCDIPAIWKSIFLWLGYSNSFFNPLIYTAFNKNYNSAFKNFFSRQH

As usually defined, the Ki is the equilibrium dissociation constant of an inhibitor or competing ligand from its target. As to `NC(N)=NC(=O)c1ccc2ccnc(-c3c(F)cc(F)cc3F)c2c1` [Example 1, N-(diaminomethylene)-1-(2,4,6-trifluorophenyl)isoquinoline-7-carboxamide dihydrochloride], for the setting “[3H]5-CT binding”, the Ki is 1 to 10 nM.
On the same count and under the same terms, to `NC(N)=NC(=O)c1ccc2c(CO)cnc(-c3c(F)cc(F)cc3F)c2c1` [Example 2, N-(diaminomethylene)-4-(hydroxymethyl)-1-(2,4,6-trifluorophenyl)isoquinoline-7-carboxamide fumarate] belongs 10 to 100 nM; to `CN/C(N)=N/C(=O)c1ccc2nccc(-c3c(F)cc(F)cc3F)c2c1` [Example 3, N-[1-amino(methylamino)methylene]-4-(2,4,6-trifluorophenyl)quinoline-6-carboxamide dihydrochloride], 1 to 10 nM; to `NC(N)=NC(=O)c1ccc2nccc(-c3ccccc3)c2c1` [Example 4], 10 to 100 nM.
With `NC(N)=NC(=O)c1ccc2nccc(-c3c(F)cc(F)cc3F)c2c1` [Example 5], the Ki ([3H]5-CT binding) was 1 to 10 nM.
As for `Cc1cc(-c2c(F)cc(F)cc2F)c2cc(C(=O)N=C(N)N)ccc2n1` [Example 6], the Ki by setting is: ([3H]5-CT binding inhibition) 13 nM; ([3H]5-CT binding) 10 to 100 nM.
Turning to `Cc1cc(-c2c(F)cccc2Cl)c2cc(C(=O)N=C(N)N)ccc2n1` [Example 7], the Ki ([3H]5-CT binding) is 10 to 100 nM.
As to `NC(N)=NC(=O)c1ccc2nccc(-c3c(F)cc(F)cc3Cl)c2c1` [Example 8], under “[3H]5-CT binding”, the Ki was 1 to 10 nM.
Consider `NC(N)=NC(=O)c1ccc2nccc(-c3c(F)cccc3Cl)c2c1` [Example 11], for which the Ki ([3H]5-CT binding) was 1 to 10 nM.
On the same count and under the same terms, under `N#Cc1ccccc1-c1ccnc2ccc(C(=O)N=C(N)N)cc12` [Example 12] stands 100 to 300 nM; under `NC(N)=NC(=O)c1ccc2nccc(-c3c(F)cc(Cl)cc3F)c2c1` [Example 13], 1 to 10 nM.
As for `NC(N)=NC(=O)c1ccc2nccc(-c3ccc(Cl)cc3F)c2c1` [Example 14], under “[3H]5-CT binding”, the Ki was 10 to 100 nM.
With `NC(N)=NC(=O)c1ccc2nccc(-c3ccc(F)cc3Cl)c2c1` [Example 15], the Ki ([3H]5-CT binding) is 1 to 10 nM.
The same measure, in the same setting: to `Cc1cnc2ccc(C(=O)N=C(N)N)cc2c1-c1c(F)cc(F)cc1F` [Example 17] belongs 1 to 10 nM; to `NC(N)=NC(=O)c1ccc2nccc(-c3cc(Cl)ccc3Cl)c2c1` [Example 18], 10 to 100 nM; to `NC(N)=NC(=O)c1ccc2nccc(-c3c(Cl)cccc3Cl)c2c1` [Example 19], 1 to 10 nM.
Same read-out and setting: to `NC(N)=NC(=O)c1ccc2nccc(-c3cc(Cl)c(F)cc3F)c2c1` [Example 20] belongs 10 to 100 nM; to `NC(N)=NC(=O)c1ccc2nccc(-c3cc(Cl)ccc3F)c2c1` [Example 22], 10 to 100 nM; to `Cc1cnc2ccc(C(=O)N=C(N)N)cc2c1-c1c(F)cc(F)cc1Cl` [Example 23], 1 to 10 nM.
As for `Cc1cnc2ccc(C(=O)N=C(N)N)cc2c1-c1cccc(Cl)c1Cl` [Example 24], the inhibition constant Ki ([3H]5-CT binding) is 1 to 10 nM.
The same measure, in the same setting: under `NC(N)=NC(=O)c1ccc2nccc(-c3cc(C(F)(F)F)ccc3F)c2c1` [Example 25] stands 10 to 100 nM; under `NC(N)=NC(=O)c1ccc2nccc(-c3c(Cl)cc(Cl)cc3Cl)c2c1` [Example 27], 1 to 10 nM.
The same measure, in the same setting: to `NC(N)=NC(=O)c1ccc2nccc(-c3cccc(C(F)(F)F)c3F)c2c1` [Example 28] belongs 10 to 100 nM; to `NC(=O)c1cc(-c2c(F)cc(F)cc2F)c2cc(C(=O)N=C(N)N)ccc2n1` [Example 30], 10 to 100 nM; to `Cc1cnc2ccc(C(=O)N=C(N)N)cc2c1-c1ccc(F)cc1F` [Example 31], 1 to 10 nM.
The same measure, in the same setting: to `Cc1cnc2ccc(C(=O)N=C(N)N)cc2c1-c1c(F)cccc1F` [Example 32] belongs 1 to 10 nM; to `N#Cc1ccc(-c2ccnc3ccc(C(=O)N=C(N)N)cc23)cc1` [Example 33], 10 to 100 nM.
As to `COc1cc(C#N)ccc1-c1ccnc2ccc(C(=O)N=C(N)N)cc12` [Example 36], the Ki ([3H]5-CT binding) is 10 to 100 nM.
The same measure, in the same setting: to `NC(N)=NC(=O)c1ccc2nccc(-c3ccc(F)c(C(F)(F)F)c3)c2c1` [Example 37] belongs 100 to 300 nM; to `Cc1cc(C(=O)N=C(N)N)cc2c(-c3c(F)cc(F)cc3F)ccnc12` [Example 39], 1 to 10 nM; to `Cc1cc(C(=O)N=C(N)N)cc2c(-c3c(F)cccc3F)ccnc12` [Example 42], 1 to 10 nM.
On the same count and under the same terms, under `NC(N)=NC(=O)c1cc(Cl)c2nccc(-c3c(F)cc(F)cc3F)c2c1` [Example 43] stands 10 to 100 nM; under `Cc1cc(C(=O)N=C(N)N)cc2c(-c3ccc(F)cc3F)ccnc12` [Example 44], 1 to 10 nM.
As for `Cc1cc(C(=O)N=C(N)N)cc2c(-c3ccc(Cl)cc3Cl)ccnc12` [Example 45], under “[3H]5-CT binding”, the Ki is 10 to 100 nM.
Same read-out and setting: under `Cc1cc(C(=O)N=C(N)N)cc2c(-c3cccc(Cl)c3Cl)ccnc12` [Example 46] stands 1 to 10 nM; under `Cc1cnc2ccc(C(=O)N=C(N)N)cc2c1-c1ccccc1F` [Example 51], 1 to 10 nM.
Take `NC(N)=NC(=O)c1ccc2nccc(-c3c(F)cncc3F)c2c1` [Example 52]: the inhibition constant Ki ([3H]5-CT binding) was 10 to 100 nM.
Same read-out and setting: under `NC(N)=NC(=O)c1cc(F)c2nccc(-c3c(F)cc(F)cc3F)c2c1` [Example 54] stands 10 to 100 nM; under `Cc1cc(C(=O)N=C(N)N)cc2c(-c3c(Cl)cccc3Cl)ccnc12` [Example 55], 1 to 10 nM; under `COc1cc(F)c(-c2ccnc3c(C)cc(C(=O)N=C(N)N)cc23)c(F)c1` [Example 58], 1 to 10 nM.
The same measure, in the same setting: under `COc1cc(F)c(-c2ccnc3ccc(C(=O)N=C(N)N)cc23)c(F)c1` [Example 59] stands 10 to 100 nM.
For the compound `NC(N)=NC(=O)c1ccc2ncc(Cl)c(-c3ccc(F)cc3F)c2c1` [Example 60], the Ki ([3H]5-CT binding inhibition) is 1.3 nM.
Consider `Cc1cnc2ccc(C(=O)N=C(N)N)cc2c1-c1cccc(F)c1Cl` [Example 61], for which the Ki ([3H]5-CT binding) is 1 to 10 nM.
On to `NC(N)=NC(=O)c1ccc2nccc(C3=CCCCC3)c2c1` [Example 62], for which, for the setting “[3H]5-CT binding”, the Ki is 1 to 10 nM.
`NC(N)=NC(=O)c1ccc2nccc(-c3cc(F)ccc3Cl)c2c1` [Example 63]: for the setting “[3H]5-CT binding”, the Ki was 10 to 100 nM.
On the same count and under the same terms, under `Cc1cc(C(=O)N=C(N)N)cc2c(-c3cc(F)ccc3Cl)ccnc12` [Example 64] stands 10 to 100 nM; under `Cc1cc(C(=O)N=C(N)N)cc2c(-c3c(F)cc(F)cc3Cl)ccnc12` [Example 65], 1 to 10 nM; under `Cc1cc(C(=O)N=C(N)N)cc2c(-c3ccc(Cl)cc3F)ccnc12` [Example 67], 1 to 10 nM.
On to `Cc1ccc(-c2ccnc3c(C)cc(C(=O)N=C(N)N)cc23)c(F)c1` [Example 68], for which the inhibition constant Ki ([3H]5-CT binding) was 10 to 100 nM.
On the same count and under the same terms, under `NC(N)=NC(=O)c1ccc2ncc(Cl)c(-c3ccccc3F)c2c1` [Example 69] stands 1 to 10 nM; under `COc1ccc(-c2ccnc3c(C)cc(C(=O)N=C(N)N)cc23)c(Cl)c1` [Example 70], 1 to 10 nM.
On the same count and under the same terms, under `Cc1cc(C(=O)N=C(N)N)cc2c(C3CC3)ccnc12` [Example 71] stands 10 to 100 nM.
Regarding `NC(N)=NC(=O)c1ccc2ncc(Cl)c(-c3ccccc3)c2c1` [Example 74], the Ki ([3H]5-CT binding) was 1 to 10 nM.
Same read-out and setting: to `Cc1cc(C(=O)N=C(N)N)cc2c(C3=CCCC3)ccnc12` [Example 75] belongs 10 to 100 nM.
The same measure, in the same setting: under `NC(N)=NC(=O)c1ccc2ncc(Cl)c(C3CC3)c2c1` [Example 76] stands 10 to 100 nM; under `COc1cc(Cl)ccc1-c1ccnc2c(C)cc(C(=O)N=C(N)N)cc12` [Example 77], 1 to 10 nM.
Same read-out and setting: to `COc1ccc(F)c(-c2ccnc3c(C)cc(C(=O)N=C(N)N)cc23)c1F` [Example 78] belongs 10 to 100 nM.
In the case of `Cc1cc(-c2ccccc2F)c2cc(C(=O)N=C(N)N)ccc2n1` [Example 82], the Ki ([3H]5-CT binding) is 10 to 100 nM.
Same read-out and setting: under `Cc1cc(-c2c(F)cc(F)cc2F)c2cc(C(=O)N=C(N)N)cc(C)c2n1` [Example 83] stands 1 to 10 nM.
